Test results: patent US20250019372A1, “CRYSTALLINE FORMS OF A RIPK1 INHIBITOR” (RIGEL PHARMACEUTICALS, INC., priority 2021, published 2025)

Experiment: Relative thermodynamic stability of the crystalline forms
Type: physicochemical
Settings: compared to the other identified Forms A, B, and C; temperature range of RT to 50° C.

CN1C(=O)[C@@H](NC(=O)c2n[nH]c(Cc3ccccc3)n2)COc2ccc(C#CC(C)(C)O)cc21 [Form D, (S)-5-benzyl-N-(7-(3-hydroxy-3-methylbut-1-yn-1-yl)-5-methyl-4-oxo-2,3,4,5-tetrahydrobenzo[b][1,4]oxazepin-3-yl)-1H-1,2,4-triazole-3-carboxamide]
thermodynamic stability of the crystalline form: most thermodynamically stable crystalline form
